Experimental data taken from patent US10279082B2, “Implant with an bioactive coating and method for providing the same” (Biomet Deutschland GmbH, priority 2015, dated 2019).

Experiments:
[1] = system: intracellular staphylococci; conditions: local administration of a pharmaceutical composition comprising rifampin; cited from earlier work
[2] = Wiping test for adherence of the coating (glass substrate, polyester cloth); format: physicochemical; conditions: fosfomycin-Ca about 430 μg/cm^2, rifampicin about 60 μg/cm^2, wiped with polyester cloth
Description: A substrate, here a glass substrate, was coated at first with a fosfomycin-Ca monohydrate suspension. Subsequently, a part of the glass substrate coated with fosfomycin-Ca was partially coated with rifampicin.
The completely coated substrate was then wiped using a polyester cloth.

## CO[C@H]1/C=C/O[C@@]2(C)Oc3c(C)c(O)c4c(O)c(c(/C=N/N5CCN(C)CC5)c(O)c4c3C2=O)NC(=O)/C(C)=C\C=C\[C@H](C)[C@H](O)[C@@H](C)[C@@H](O)[C@@H](C)[C@H](OC(C)=O)[C@@H]1C [rifampin]
[1]
  elimination of intracellular staphylococci: reduced within three days

## C[C@@H]1O[C@@H]1P(=O)([O-])[O-].O.[Ca+2] [fosfomycin-Ca, fosfomycin-calcium-monohydrate]
[2]
  adherence of coating after wiping: largely removed
